Laboratory results from paper PMC5164911, “Comparative Analysis of the Interaction between Different Flavonoids and PDIA3” (Oxidative Medicine and Cellular Longevity, 2016).
Like-named read-outs stand apart in the source and are kept apart here.

Columns and labels:
[1] = biological target: T1, PDIA3 (Homo sapiens, UniProt P30101); details: cited from earlier work
T1 construct: made in house; host or cells: E. coli BL21 (vector pET21)
T1 sequence (P30101 25-505): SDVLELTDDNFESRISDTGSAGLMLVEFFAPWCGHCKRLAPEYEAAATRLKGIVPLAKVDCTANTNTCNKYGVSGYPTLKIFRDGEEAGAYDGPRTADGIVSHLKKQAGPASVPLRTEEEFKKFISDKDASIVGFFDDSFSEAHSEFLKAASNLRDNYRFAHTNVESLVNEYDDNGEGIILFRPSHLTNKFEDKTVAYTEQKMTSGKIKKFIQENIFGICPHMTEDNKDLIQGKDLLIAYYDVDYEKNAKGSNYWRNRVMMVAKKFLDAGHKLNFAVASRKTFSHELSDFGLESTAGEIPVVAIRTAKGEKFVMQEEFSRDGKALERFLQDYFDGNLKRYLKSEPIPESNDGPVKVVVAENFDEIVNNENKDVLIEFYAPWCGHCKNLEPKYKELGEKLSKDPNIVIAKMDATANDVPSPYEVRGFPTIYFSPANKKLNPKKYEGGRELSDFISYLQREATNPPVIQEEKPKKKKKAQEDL

[2] = biological target: T1, PDIA3; details: cited from earlier work; remark: listed apart in the source
[3] = biological target: T1, PDIA3; design: method as in Trnková et al. [30]; details: Figure 8, unit inferred; ref Trnková et al. [30]; read-out: Dissociation constant (Kd); cited from earlier work
[4] = biological target: T1, PDIA3; assay: Disulfide reductase activity with DiE-GSSG fluorogenic probe; format: biochemical; details: DiE-GSSG substrate; for Inhibition of disulfide reductase (redox) activity: 20 μM flavonoid (Figure 7)
Protocol: Disulfide reductase activity of ERp57 was monitored by sensitive fluorescent assay using dieosin glutathione disulfide (DiE-GSSG) as fluorogenic probe. DiE-GSSG was synthesized by the reaction of eosin isothiocyanate with oxidized glutathione (GSSG) according to the method of Raturi and Mutus with some modifications. DiE-GSSG concentration was determined spectrophotometrically (ℇ 525 = 88,000 M^-1 cm^−1). Disulfide reductase activity was assayed in a reaction buffer containing 2 mM EDTA, 150 nM DiE-GSSG, and 5 μM DTT in PBS. A 20 μl aliquot of a stock solution of PDIA3 (1 μM) was added to the reaction mixture and DiE-GSSG reduction was monitored at 545 nm with excitation at 520 nm, at 25°C with continuous stirring. Reductase activity was calculated as the initial velocity in fluorescence increase. To test the effect of flavonoids on PDIA3 activity, the protein stock solution was previously incubated for 15 minutes at room temperature with different concentrations of each flavonoid and then a 20 μl aliquot subjected to assay in a reaction buffer containing the same concentration of the flavonoid.
Fluorescence quenching constant (K SV) values were given as means ± standard deviation and values of disulfide reductase activity were expressed in % of control sample ± relative standard deviation. All measurements were performed at least three times. Dunnett's test was used to compare the obtained reductase activity data with the activity of the untreated protein and a p value of <0.01 was considered as statistically significant.

[5] = biological target: T1, PDIA3; assay: Differential scanning fluorimetry (thermal stability, SYPRO Orange); format: binding; details: 50 μM flavonoid, reduced PDIA3 1 μM
Protocol: Protein stability was tested by the fluorescence-based thermal stability assay or differential scanning fluorimetry (DSF) developed by Pantoliano and coworkers. DSF records the fluorescence emission signal from the binding of a dye (SYPRO orange) to the exposed hydrophobic patches upon protein unfolding. Fluorescence measurements were performed using a CFX96 Connect RT-PCR instrument (BioRad). 18 μl aliquots of protein solution (1 μM), freshly diluted in Tris Buffered saline (50 mM TrisHCl, pH 8.0, 150 mM NaCl) containing 0.1 mM DTT, 0.2 mM EDTA, and 1 : 1000 dilution of SYPRO Orange (50 mM stock solution in DMSO), were distributed in a 96-well plate. Sample wells were addition of increasing concentration (up to 50 μM) of individual flavonoid by adding 2 μl of 10-fold concentrated stock solutions freshly prepared. As control, the protein solution was added with 2 μl of the dilution buffer. A melting point analysis was recorded increasing the temperature from 20 to 95°C with an increment of 0.5°C and reading, at each temperature, the fluorescence in fluorescence resonance energy transfer mode (FRET). Each measure was the average of three sample wells reading and each DSF experiment was repeated at least three times. To calculate T m values, DSF data from the melting curve were exported and fitted to Boltzman equation using GraphPad software. Effect of flavonoids was evaluated comparing the T m values in presence and absence of each molecule.

[6] = biological target: T1, PDIA3; assay: Fluorescence quenching titration of PDIA3 intrinsic fluorescence; format: binding
Protocol: Quantitative analysis of the interaction between individual flavonoids and PDIA3 was performed by fluorimetric titration. […] Briefly, solution of PDIA3 (0.5 μM) or a and a′ domains (1 μM) in phosphate buffered saline (PBS) containing DTT 0.1 mM and EDTA 0.2 mM were titrated in quartz cuvette by stepwise additions, at 5 min time intervals, of individual flavonoid solution (1 mM in PBS/ethanol 50 : 50 v/v freshly prepared from a 20 mM stock solution in DMSO). […] To minimize the inner-filter effect we limited the highest concentration reached in the titration test up to 10 μM. All experiments were carried out at 25°C. Each spectrum was the mean of three repeated scans. Fluorescence spectra of appropriate blanks (flavonoids without proteins) were recorded under the same experimental conditions and subtracted from the corresponding flavonoid-protein system to correct the fluorescence background.
Quenching analysis was performed on PDIA3 (0.5 μM), in the reduced form, by adding stepwise increasing concentration of each molecule and recording the protein fluorescence spectra. For some flavonoids the analysis was extended to isolate a′ domain (1 μM), always in the reduced form. […] For each ligand molecule the Stern-Volmer quenching constant was obtained by linear regression of plots of F 0/F versus [L].
The Stern-Volmer quenching constant may be expressed as K SV = K q τ 0, where K q is the quencher rate coefficient and τ 0 is the average lifetime of the emissive excited state of the protein in the absence of the quencher.
The number of binding sites (n) and the binding constant (K b) were obtained by plotting log((F 0 − F)/F) versus log(1/([L t] − n(F 0 − F)[P t]/F 0)) using the reiterative calculation process described by Sun et al., assuming a similar affinity for each binding site.

[7] = biological target: T1, PDIA3; assay: DNA binding activity by EMSA; format: biochemical; details: flavonoid 0 to 50 μM
Protocol: EMSA assay was performed using a 79-bp […] obtained by PCR as previously described. Amplified DNA was end-labeled by using 5-fluorescein-modified primers. 10 ng of DNA fragment was incubated with 1 μg of PDIA3 or a′ domain, in presence of increasing concentration of flavonoids (from 0 to 50 μM). Controls were performed using DNA alone and in the presence of each flavonoid. All tests were performed in 20 μl mixtures containing 20 mM Tris-HCl, pH 7.5, 50 mM NaCl, and 10% (v/v) glycerol. Samples were incubated for 1 hour at 25°C and then resolved on 5% polyacrylamide gels in 0,25% TBE buffer (22.5 mM Tris-borate, 5 mM EDTA, pH 8.3) at 150 V. Gel images were recorded using a ChemiDoc MP Imaging System (BioRad) equipped with an epi-blue excitation lamp and a 520 nm emission filter.

[8] = biological target: PDIA3; design: method as in PMID 24530445; details: cited from earlier work

For `O=C(OC1Cc2c(O)cc(O)cc2OC1c1cc(O)c(O)c(O)c1)c1cc(O)c(O)c(O)c1` (stereo not shown) [Epigallocatechin gallate, epigallocatechin gallate], the “Effect on DNA binding” value ([1]; ref Trnková et al. [30]) is given as “Inhibition”, the “Inhibition of redox activity (%)” value ([2]; Figure 8, ref Trnková et al. [30]) is given as 21% and the Kd [3] is given as 45.8 µM.
For `O=c1c(O)c(-c2ccc(O)c(O)c2)oc2cc(O)cc(O)c12` [Quercetin, quercetin], the “Inhibition of disulfide reductase (redox) activity” value [4] was 18%, the “Inhibition of disulfide reductase (redox) activity” value ([4]; listed as quercetin) was “approximately 20%” and the “Effect on disulfide reductase activity (in words)” value [4] was “some inhibitory effect”. The “Increase in melting temperature (T m) of PDIA3” value [5] was “increased more than three degrees”, the “Stern-Volmer constant (K SV)” value ([6]; 0.5∗10^−6 M PDIA3 in reduced conditions, pH 7.4, 25°C, flavonoid 0 to 10∗10^−6 M, mean and standard deviation) was 46226 ± 1406 M⁻¹ and the Kd ([6]; Figure 8, no unit printed in the picture, read-out: Dissociation constant (Kd)) was 25.6 µM. For the same compound, the “bimolecular quenching rate constant (K q)” value ([6]; K SV = K q τ0 with τ0 of the order of 10^−8 s, reduced PDIA3, pH 7.4, 25°C) was 4.62e+12 M⁻¹ s⁻¹, the Kd ([6]; K d = 1/K b, reduced PDIA3, pH 7.4, 25°C, read-out: dissociation constant (K d)) was 25.6 µM and the “binding constant (K b)” value ([6]; equation of Bi et al., reiterative calculation of Sun et al., reduced PDIA3, pH 7.4, 25°C) was 39000 M⁻¹. For the same compound, the “Effect on DNA binding activity of PDIA3” value [7] was “None”.
In the case of `COc1cc(C2Oc3cc([C@H]4Oc5cc(O)cc(O)c5C(=O)[C@@H]4O)ccc3OC2CO)ccc1O` (stereo partly shown) [silibinin], the “Effect on DNA binding capability of PDIA3” value [1] is listed as “no effect”, the “Effect on redox activity of PDIA3” value [2] is listed as “no effect” and the dissociation constant [8] is listed as “within micromolar range”.
